Legend:
[1] = system: myosin heavy chain protein; test: immunofluorescence of myosin heavy chain protein in C2C12 myoblasts; assay type: cell-based; settings: 0.1 μM sobrerol, 72 hours, differentiation medium
Experimental: Among the myogenic regulatory factors whose mRNA increased in the Example 2-1, experiments were conducted to verify the effect of sobrerol on the expression of myosin heavy chain. Specifically, the expression level of the myosin heavy chain protein was measured by immunofluorescence after treating the C2C12 myoblasts placed in the differentiation medium with 0.1 μM of sobrerol for 72 hours.

MyoD = test: qRT-PCR of myogenic regulatory factor mRNA in C2C12 myoblasts: MyoD; assay type: cell-based; settings: 0.1 μM sobrerol, 48 hours, growth medium
Experimental: (§1) Experiments were conducted to verify the effect of sobrerol on mRNA of myogenic regulatory factor. Specifically, the myoblasts (C2C12 myoblast cells) placed in the growth medium were treated with 0.1 μM sobrerol for 48 hours, and then subjected to qRT-PCR to measure the levels of MyoD, myogenin, and myosin heavy chain (MyHC).

[2] = system: female C57BL/6 mice at the age of 21 months; test: muscle weight in aged mice; assay type: in vivo; settings: 35.3 mg/kg
Experimental: (§2) Experiments were conducted to confirm whether sobrerol increases muscle strength in aged mice. Female C57BL/6 mice at the age of 21 months were adapted to the environment for 2 weeks and then orally administered with drugs for 5 weeks. Specifically, the negative control group was administered with water, the positive control group was administered with clenbuterol at a concentration of 2 mg/kg (mouse), and the sobrerol administration experimental group was orally administered with sobrerol at a concentration of 17.6 or 35.3 mg/kg (mouse). Then, locomotion tests (grip strength, treadmill) were conducted again to verify the effect.
(§3) In addition, changes in the muscle size and the muscle weight of the aged mice by sobrerol were verified by the method of the Example 3-3.
(§4) In addition, as in the Example 3-3, the diameter of the muscle fiber of the tibialis anterior (TA) section was measured by immunofluorescence analysis using laminin antibodies.

aged mice = test: treadmill test in aged mice after exercise restriction; assay type: in vivo; settings: hind limbs immobilized 5 days then remobilization
Experimental: as §2
Both hind limbs of the mice were immobilized for 5 days using a surgical stapler (Autosuture Royal 35W stapler), and after removing the surgical stapler, they were allowed to move again (remobilization), and then exercise capability was evaluated by a treadmill test. As a result, the running time on the treadmill decreased after the exercise restriction as compared to that before the exercise restriction in the control group administered with distilled water, whereas the running time was not affected by exercise restriction in the experiment group administered with sobrerol (FIG. 17).

male C57BL/6 mice = test: grip strength test after hind limb immobilization and remobilization; assay type: in vivo
Experimental: (§5) A total of 45 male C57BL/6 mice at 5 weeks of age (Daehan BioLink) were used in this animal experiment. After 2 weeks of adaptation to the surrounding environment, sobrerol was orally administered twice daily since 7 weeks of age. The control group was administered with 200 μL of water/20 g of mouse, and sobrerol was orally administered at a ratio of 1:2:4 [8.8 mg/200 μL/20 g (mouse), 17.6 mg/200 μL/20 g (mouse) and 35.3 mg/200 μL/20 g (mouse)] to verify dose dependency. At 8 weeks of age, both hind limbs of the mice were immobilized for 10 days using a surgical stapler (Autosuture Royal 35W stapler). (A novel hindlimb immobilization procedure for studying skeletal muscle atrophy and recovery in mouse. J Appl Physiol 106: 2049-2059, 2009). After removing the surgical stapler, they were allowed to move again for 3 days (remobilization), and then exercise capability improvement-verification tests (treadmill, and grip tests) were conducted.
The grip strength was measured using a grip strength measuring device for mouse (BIOSEB) (FIG. 6). Specifically, the front limbs of the mice of the Example 3-1 were placed on a wire net attached to an instrument panel capable of monitoring the strength, and the strength to hold the wire net was measured while the tail was gripped and pulled downward. The test was repeated three times in succession.

myogenin = test: qRT-PCR of myogenic regulatory factor mRNA in C2C12 myoblasts: myogenin; assay type: cell-based; settings: 0.1 μM sobrerol, 48 hours, growth medium
Experimental: as §1

[3] = system: tibialis anterior (TA) muscle fibers; test: muscle fiber diameter (laminin immunofluorescence of tibialis anterior section) in aged mice; assay type: in vivo; settings: aged mice fed with sobrerol
Experimental: In addition, after the exercise restriction in the Example 3-3, sections of the tibialis anterior (TA) were stained by immunofluorescence analysis using the antibodies against laminin, which is a protein existing at the periphery of muscle fibers, and the diameter of each muscle fiber was measured.
as §2, §3, §4

[4] = system: tibialis anterior (TA) muscle fibers; test: muscle fiber diameter (laminin immunofluorescence of tibialis anterior sections) after exercise restriction; assay type: in vivo, mice; settings: oral
Experimental: as §5, with “conducted. In addition, after the exercise restriction in the Example 3-3, sections of the tibialis anterior (TA) were stained by immunofluorescence analysis using the antibodies against laminin, which is a protein existing at the periphery of muscle fibers, and the diameter of each muscle fiber was measured.” for “conducted.”

[5] = system: female C57BL/6 mice at the age of 21 months; test: treadmill test in aged mice; assay type: in vivo; settings: 5 weeks
Experimental: One day prior to the treadmill test, the equipment was warmed up at a rate of 6 m/min for 10 minutes. At the starting point, electric stimulation was configured to flow so that the mice were forced to exercise. The next day, the test was started at a speed of 8 m/min and the speed was increased by 2 m/min every 20 minutes. One hour after the start of the treadmill test, the speed of 12 m/min was maintained, and the angle was increased by 5° and the electric stimulation was turned off. After 20 minutes, the angle of 5° was maintained but only the speed was increased by 2 m/min. Under the above condition, the running times of the mice were measured and recorded.
as §2
Tread mill test is the same as Example 3-3.

## CC1=CCC(C(C)(C)O)CC1O (centres unmarked) [sobrerol]
[1]
  myosin heavy chain protein fluorescence intensity versus DMSO group: stronger
MyoD
  MyoD mRNA increase: 2 fold
[2]
  weights of the gastrocnemius (GA): increased to a significant level
Aged mice
  treadmill running time after exercise restriction versus before: not affected
Male C57BL/6 mice; oral 8.8, 17.6, 35.3 mg/kg, immobilized mice
  grip strength with higher concentration of sobrerol administered: increasing tendency
Male C57BL/6 mice; oral, twice daily, hind limbs immobilized 10 days, remobilization 3 days, negative control 3.5 N or less
  grip strength measurement value: ≥ 4.0 N
myogenin
  myogenin mRNA increase: 4 fold
[3]
  diameters of the muscle fibers (tibialis anterior section): further increased
[4]
  diameters of the muscle fibers (tibialis anterior) versus distilled water control: larger
[5]; 17.6 mg/kg oral
  treadmill running time versus negative control group: significantly longer
[5]; 35.3 mg/kg oral
  treadmill running time versus negative control group: longer running time than the negative control group

Reference: patent publication US10765642B2, “Composition for preventing or treating muscle weakness-related diseases comprising sobrerol” (KOREA RESEARCH INSTITUTE OF BIOSCIENCE AND BIOTECHNOLOGY, priority 2015, dated 2020)
